Where two headings read alike, the source gives them in different places.

This assay concerns the target T1, partially purified rat brain famesyl protein transferase (FPT) (Rattus norvegicus, UniProt Q02293+Q04631).
T1 construct: partially purified rat brain famesyl protein transferase (FPT); from tissue; host or cells: rat brain
The assay is described as follows: In vitro enzyme assay: inhibition of Ras-CVLS farnesylation by farnesyl protein transferase (FPT). It is filed as biochemical. The procedure:
• 1. In vitro enzyme assays: FPT IC50 (inhibition of famesyl protein transferase, in vitro enzyme assay) are determined by the methods disclosed in […] or WO 95/10516. […] Cell-based assay. COS IC50 values refer to the COS cells activity inhibition of Ras processing, are determined by the methods disclosed in […] or WO 95/10516.

The mark [1] stands for this setting: unit printed as uM (Examples 49-54).

T1 sequence (Q02293 whole entry, one chain of several): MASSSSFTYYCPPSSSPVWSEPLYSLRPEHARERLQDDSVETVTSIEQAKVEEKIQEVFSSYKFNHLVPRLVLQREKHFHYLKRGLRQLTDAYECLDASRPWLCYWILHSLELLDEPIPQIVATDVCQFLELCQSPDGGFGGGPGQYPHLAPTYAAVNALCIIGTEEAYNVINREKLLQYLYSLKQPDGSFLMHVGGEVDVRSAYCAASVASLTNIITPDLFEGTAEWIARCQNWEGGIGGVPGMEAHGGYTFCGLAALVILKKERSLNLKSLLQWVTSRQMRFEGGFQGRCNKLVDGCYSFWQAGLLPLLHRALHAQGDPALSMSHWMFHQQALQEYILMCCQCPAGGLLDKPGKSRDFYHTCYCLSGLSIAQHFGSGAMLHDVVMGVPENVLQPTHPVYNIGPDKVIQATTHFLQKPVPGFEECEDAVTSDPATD

In general, IC50 refers to the concentration that inhibits the measured activity by half. High values mean weaker potency, low ones greater potency. Compound `O=C(NCc1cccnc1)C1CCCCN1C1c2ncc(Br)cc2CCc2cc(Cl)cc(Br)c21` (stereo not drawn) [Isomer C3 amide] gave an IC50 of 0.3 µM.

On to `O=C(NCc1cccnc1)C1CCCN(C2c3ccc(Cl)cc3CCc3cc(Br)cnc32)C1` (single isomer, unassigned) [Example 10 Isomer D, 1-(3-Bromo-8-chloro-6,11-dihydro-5H-benzo[5,6]cyclohepta[1,2-b]pyridin-11-yl)-N-(3-pyridinylmethyl)-3-piperidinecarboxamide], for which the IC50 amounted to 0.187 µM.

Turning to `NC(=O)NCC1CCN(C(=O)C2CCN(C3c4ccc(Cl)cc4CCc4cc(Br)cnc43)CC2)CC1` (centres unmarked) [Example 9, 1-[1-(3-Bromo-8-chloro-6,11-dihydro-5H-benzo[5,6]cyclohepta[1,2-b]pyridin-11-yl)-4-piperidinylcarbonyl]-4-[(1-aminomethanamido)methyl]piperidine], 0.66 µM corresponded to half-maximal inhibition (IC50).

Under setting [1], `O=C(NC1CC1)[C@@H]1CCCN(C2c3ncc(Br)cc3CCc3cc(Cl)cc(Br)c32)C1` (some centres unmarked) [Example 49, N-cyclopropyl-1-(3,10-dibromo-8-chloro-6,11-dihydro-5H-benzo[5,6]cyclohepta[1,2-b]pyridin-11-yl)-3-piperidinecarboxamide] came in with a half-maximal inhibitory concentration (IC50) of 0.58 µM.

Take `O=C(NCCc1ccccn1)C1CCN(C2c3ccc(Cl)cc3CCc3cc(Br)cnc32)CC1` (racemic) [Example 6, 1-(3-Bromo-8-chloro-6,11-dihydro-5H-benzo[5,6]cyclohepta[1,2-b]pyridin-11-yl)-N-(2-pyridiriylethyl)-4-piperidinecarboxamide]: where the note is “read-out: FPT Inhibition”, the inhibition at 1.1 µM amounted to 9%.

`O=C(CC1CCN(C2c3ccc(Cl)cc3CCc3cc(Br)cnc32)CC1)NCc1cccnc1` (centres unmarked) [Example 43, 1-(3-Bromo-8-chloro-6,11-dihydro-5H-benzo[5,6]cyclohepta[1,2-b]pyridin-11-yl)-N-(3-pyridylmethyl)-4-piperidineacetamide]: the inhibition at 0.22 µM (read-out: FPT INH) was 43%.

In turn, `O=C(NCc1cccnc1)C1CCCN(C2c3ccc(Cl)cc3CCc3cc(Br)cnc32)C1` (centres unmarked) [Example 10, 1-(8-chloro-3-bromo-5,6-dihydro-11H-benzo[5,6]-cyclohepta[1,2-b]pyridin-11-yl)piperidine-3-(N-3-pyridylmethylamino)carboxamide] returned an IC50 of 0.21 µM.

Turning to `O=C(NCc1cccnc1)C1CCCN(C2c3ccc(Cl)cc3CCc3cc(Br)cnc32)C1` (single isomer, unassigned) [Example 10 Isomer C, 1-(3-Bromo-8-chloro-6,11-dihydro-5H-benzo[5,6]cyclohepta[1,2-b]pyridin-11-yl)-N-(3-pyridinylmethyl)-3-piperidinecarboxamide], 0.179 µM corresponded to half-maximal inhibition (IC50).

The compound `O=C(NCCc1cccnc1)[C@@H]1CCCN(C2c3ncc(Br)cc3CCc3cc(Cl)cc(Br)c32)C1` (some centres unmarked) [Example 52, 1-(3,10-Dibrorno-8-chforo-6,11-dihydro-5H-benzo[5,6]cyclohepta[1,2-b]pyridin-11-yl)-N-[2-(3-pyridinyl)ethyl]-3-piperidinecarboxamide] gave a 50% inhibitory concentration (IC50) under setting [1] of 0.081 µM.

For `NCC1CCN(C(=O)C2CCN(C3c4ccc(Cl)cc4CCc4cc(Br)cnc43)CC2)CC1` (racemic) [Example 9 Step B], under “@ 0.38 µM, read-out: FPT Inhibition”, the inhibition at 0.38 µM came out at 16%.

`O=C(NCC1CCNCC1)C1CCN(C2c3ccc(Cl)cc3CCc3cc(Br)cnc32)CC1` (centres unmarked) [Example 8 Step B, 1-(3-Bromo-8-chloro-6,11-dihydro-5H-benzo[5,6]cyclohepta[1,2-b]pyridin-11-yl)-N-(4-piperidinylmethyl)-4-piperidinecarboxamide]: the inhibition at 0.38 µM (read-out: FPT Inhibition) turned out to be 12%.

Regarding `O=C(NCc1ccncc1)[C@H]1CCCCN1C1c2ccc(Cl)cc2CCc2cc(Br)cnc21` (single isomer, unassigned) [Isomer A2 amide], the “FPT Inhibition” value (@ 1.1 µM) was “FPT Inhibition = 0% @ 1.1 µM”.

In the case of `O=C(NCc1cccnc1)C1CCCN(C2c3ccc(Cl)cc3CCc3cc(Br)cnc32)C1` (single isomer, unassigned) [Example 10 Isomer A, 1-(3-Bromo-8-chloro-6,11-dihydro-5H-benzo[5,6]cyclohepta[1,2-b]pyridin-11-yl)-N-(3-pyridinylmethyl)-3-piperidinecarboxamide], where the note is “read-out: FPT Inhibition”, the inhibition at 1.14 µM turned out to be 6.1%.

Consider `O=C(NCc1cccnc1)C1CCCN(C2c3ncc(Br)cc3CCc3cc(Cl)cc(Br)c32)C1` (centres unmarked) [Example 16, 1-(3,10-Dibromo-8-chloro-6,11-dihydro-5H-benzo[5,6]cyclohepta[1,2-b]pyridin-11-yl)-N-(3-pyridinylmethyl)-3-piperidinecarboxamide], for which the half-maximal inhibitory concentration (IC50) came to 0.027 µM.

Consider `O=C(NCc1ccncc1)[C@@H]1CCCCN1C1c2ccc(Cl)cc2CCc2cc(Br)cnc21` (single isomer, unassigned) [Example 13, 1-(3-Bromo-8-chloro-6,11-dihydro-5H-benzo[5,6]cyclohepta[1,2-b]pyridin-11-yl)-N-(4-pyridinylmethyl)-2S-piperidinecarboxamide], for which, under “@ 1.1 µM”, the “FPT Inhibition” value is 21%.

In turn, `CNC(=O)[C@@H]1CCCN(C2c3ncc(Br)cc3CCc3cc(Cl)cc(Br)c32)C1` (some centres unmarked) [Example 50, 1-(3,10-Dibromo-8-chloro-6,11-dihydro-5H-benzo[5,6]cyclohepta[1,2-b]pyridin-11-yl)-N-methyl-3-piperidinecarboxamide] returned a half-maximal inhibitory concentration (IC50) under setting [1] of 0.96 µM.

Take `O=C(CCC1CCN(C2c3ccc(Cl)cc3CCc3cc(Br)cnc32)CC1)NCc1cccnc1` (centres unmarked) [Example 44, 1-(3-Bromo-8-chloro-6,11-dihydro-5H-benzo[5,6]cyclohepta[1,2-b]pyridin-11-yl)-N-(3-pyridylmethyl)-4-piperidinepropanamide]: for the setting “read-out: FPT INH”, the inhibition at 0.35 µM is 39%.

Consider `O=C(NCc1cccnc1)C1CCCN(C2c3ccc(Cl)cc3CCc3cc(Br)cnc32)C1` (single isomer, unassigned) [Example 10 Isomer B, 1-(3-Bromo-8-chloro-6,11-dihydro-5H-benzo[5,6]cyclohepta[1,2-b]pyridin-11-yl)-N-(3-pyridinylmethyl)-3-piperidinecarboxamide], for which the concentration for half-maximal inhibition (IC50) was found to be 0.194 µM.

In the case of `O=C(NCc1ccncc1)[C@@H]1CCCCN1C1c2ccc(Cl)cc2CCc2cc(Br)cnc21` (single isomer, unassigned) [Example 12, 1-(3-Bromo-8-chloro-6,11-dihydro-5H-benzo[5,6]cyclohepta[1,2-b]pyridin-11-yl)-N-(4-pyridinylmethyl)-2S-piperidinecarboxamide], the inhibition at 1.1 µM (@ 1.1 µM, read-out: FPT Inhibition) is 18%.

Regarding `NC(=O)N1CCC(NC(=O)C2CCN(C3c4ccc(Cl)cc4CCc4cc(Br)cnc43)CC2)CC1` (racemic) [Example 7, 1-(3-Bromo-8-chloro-6,11-dihydro-5H-benzo[5,6]cyclohepta[1,2-b]pyridin-11-yl)-N-[4-(N-carboxamidopiperidinyl)]-4-piperidinecarboxamide], the inhibition at 0.36 µM (@ 0.36 µM) came out at 15%.

Consider `O=C(NCc1ccc[n+]([O-])c1)[C@@H]1CCCN(C2c3ncc(Br)cc3CCc3cc(Cl)cc(Br)c32)C1` (single isomer, unassigned) [Example 51, 1-(3,10-Dibromo-8-chioro-6,11-dihydro-5H-benzo[5,6]cyclohepta[1,2-b]pyridin-11-yl)-N-(3-pyridinylmethyl)-3-piperidinecarboxamide N1-oxide], for which the 50% inhibitory concentration (IC50) under setting [1] turned out to be 0.1 µM.

Take `O=C(CC1CCCN(C2c3ccc(Cl)cc3CCc3cc(Br)cnc32)C1)NCc1cccnc1` (centres unmarked) [Example 18, 1-(3-Bromo-8-chloro-6,11-dihydro-5H-benzo[5,6]cyclohepta[1,2-b]pyridin-11-yl)-N-(3-pyridinylmethyl)-3-piperidineacetamide]: where the note is “read-out: FPT Inhibition”, the inhibition at 1.1 µM worked out at 9%.

With `O=C(NCc1ccncc1)[C@H]1CCCCN1C1c2ccc(Cl)cc2CCc2cc(Br)cnc21` (single isomer, unassigned) [Isomer B2 amide], the “FPT Inhibition” value (@ 1.1 µM) was “FPT Inhibition = 13% @ 1.1 µM”.

As to `O=C(NCc1ccncc1)C1CCN(C2c3ccc(Cl)cc3CCc3cc(Br)cnc32)CC1` (centres unmarked) [Example 3, 1-(3-Bromo-8-chloro-6,11-dihydro-5H-benzo[5,6]cyclohepta[1,2-b]pyridin-11-yl)-N-(4-pyridinylmethyl)-4-piperidinecarboxamide], the inhibition at 1.1 µM (read-out: FPT Inhibition) worked out at 21%.

In the case of `NC(=O)N1CCC(CNC(=O)C2CCN(C3c4ccc(Cl)cc4CCc4cc(Br)cnc43)CC2)CC1` (racemic) [Example 8, 1-(3-Bromo-8-chloro-6,11-dihydro-5H-benzo[5,6]cyclohepta[1,2-b]pyridin-11-yl)-N-[4-(N-carboxamidopiperidinyl)methyl]-4-piperidinecarboxamide], the inhibition at 1.04 µM (@ 1.04 µM) was 41%.

The compound `O=C(CC1CCN(C2c3ncc(Br)cc3CCc3cc(Cl)cc(Br)c32)CC1)NCc1cccnc1` (centres unmarked) [Example 45, 1-(8-Chloro-3,10-dibromo-6,11-dihydro-5H-benzo[5,6]cycloheptal[1,2-b]pyridin-11-yl)-N-(3-pyridylmethyl)-4-piperidineacetamide] displayed a 50% inhibitory concentration (IC50) of 0.042 µM.

As to `O=C(NCc1cccnc1)[C@H]1CCCCN1C1c2ccc(Cl)cc2CCc2cc(Br)cnc21` (single isomer, unassigned) [Isomer C2 amide], under “@ 0.38 µM”, the “FPT Inhibition” value is reported as “FPT Inhibition =11% @ 0.38 µM”.

In the case of `O=C(NCc1cccnc1)C1CCCN(C2c3ncc(Br)cc3CCc3cc(Cl)cc(Br)c32)C1` (single isomer, unassigned) [Example 17 Isomer A, 1-(3,10-Dibromo-8-chloro-6,11-dihydro-5H-benzo[5,6]cyclohepta[1,2-b]pyridin-11-yl)-N-(3-pyridinylmethyl)-3-piperidinecarboxamide], the half-inhibitory concentration (IC50) was under 0.0099 µM.

`O=C(CC1CCCN(C2c3ccc(Cl)cc3CCc3cc(Br)cnc32)C1)Nc1cccnc1` (centres unmarked) [Example 19, 1-(3-Bromo-8-chloro-6,11-dihydro-5H-benzo[5,6]cyclohepta[1,2-b]pyridin-11-yl)-N-(3-pyridinyl)-3-piperidineacetamide]: the inhibition at 1.1 µM (read-out: FPT Inhibition) was found to be 15%.

The values are drawn from EP0931078B1, “NOVEL TRICYCLIC PIPERIDINYL COMPOUNDS USEFUL AS INHIBITORS OF FARNESYL-PROTEIN TRANSFERASE” (SCHERING CORPORATION, priority 1996, dated 1998).
